Measurements reported in US11254690B2, “PTEFb inhibiting macrocyclic compounds” (BAYER AKTIENGESELLSCHAFT, priority 2017, dated 2022).
Read-outs that look alike come from different tables or passages of the source.

Tests used:
[1] = target: T1, CDK9/CycT1 (Homo sapiens, UniProt P50750); assay: CDK9/CycT1 high ATP kinase assay (TR-FRET, 2 mM ATP); format: biochemical; settings: for IC50: 2 mM ATP, Method 1b, lower limit for IC50s about 1-2 nM; for Selectivity high ATP CDK9 over high ATP CDK2: IC50 (high ATP CDK2)/IC50 (high ATP CDK9): ratio from Methods 1b and 2b, minimal values for IC50s near the assay limit
T1 construct: Recombinant full-length His-tagged human CDK9 and CycT1; His; purchased Life Technologies PV4131; host or cells: insect cells
Protocol: 1b. CDK9/CycT1 High ATP Kinase Assay
CDK9/CycT1-inhibitory activity of compounds of the present invention at a high ATP concentration after preincubation of enzyme and test compounds was quantified employing the CDK9/CycT1 TR-FRET assay as described in the following paragraphs.
Recombinant full-length His-tagged human CDK9 and CycT1, expressed in insect cells and purified by Ni-NTA affinity chromatography, were purchased from Life Technologies (Cat. No PV4131). As substrate for the kinase reaction biotinylated peptide biotin-Ttds-YISPLKSPYKISEG (C-terminus in amide form) was used which can be purchased e.g. form the company JERINI peptide technologies (Berlin, Germany).
(§1) For the assay 50 nl of a 100 fold concentrated solution of the test compound in DMSO was pipetted into either a black low volume 384 well microtiter plate or a black 1536 well microtiter plate (both Greiner Bio-One, Frickenhausen, Germany), 2 μl of a solution of CDK9/CycT1 in aqueous assay buffer [50 mM Tris/HCl pH 8.0, 10 mM MgCl2, 1.0 mM dithiothreitol, 0.1 mM sodium ortho-vanadate, 0.01% (v/v) Nonidet-P40 (Sigma)] were added and the mixture was incubated for 15 min at 22° C. to allow pre-binding of the test compounds to the enzyme before the start of the kinase reaction. […] The concentration of CDK9/CycT1 was adjusted depending of the activity of the enzyme lot and was chosen appropriate to have the assay in the linear range, typical concentrations were in the range of 0.5 μg/ml. The reaction was stopped by the addition of 3 μl of a solution of TR-FRET detection reagents (0.33 μM streptavidine-XL665 [Cisbio Bioassays, Codolet, France] and 1.67 nM anti-RB(pSer807/pSer811)-antibody from BD Pharmingen [#558389] and 2 nM LANCE EU-W1024 labeled anti-mouse IgG antibody [Perkin-Elmer, product no. AD0077]) in an aqueous EDTA-solution (167 mM EDTA, 0.2% (w/v) bovine serum albumin in 100 mM HEPES pH 7.5).
(§2) The resulting mixture was incubated 1 h at 22° C. to allow the formation of complex between the phosphorylated biotinylated peptide and the detection reagents. Subsequently the amount of phosphorylated substrate was evaluated by measurement of the resonance energy transfer from the Eu-chelate to the streptavidine-XL. Therefore, the fluorescence emissions at 620 nm and 665 nm after excitation at 350 nm was measured in a TR-FRET reader, e.g. a Pherastar (BMG Labtechnologies, Offenburg, Germany) or a Viewlux (Perkin-Elmer). The ratio of the emissions at 665 nm and at […] was taken as the measure for the amount of phosphorylated substrate. The data were normalised (enzyme reaction without inhibitor=0% inhibition, all other assay components but no enzyme=100% inhibition).

[2] = target: T2, CDK2/CycE (Homo sapiens, UniProt P24941); assay: CDK2/CycE high ATP kinase assay (TR-FRET, 2 mM ATP); format: biochemical; settings: Method 2b
T2 construct: GST; purchased ProQinase GmbH (Freiburg, Germany); host or cells: insect cells (Sf9)
Protocol: 2b. CDK2/CycE High ATP Kinase Assay
CDK2/CycE-inhibitory activity of compounds of the present invention at 2 mM adenosine-tri-phosphate (ATP) was quantified employing the CDK2/CycE TR-FRET (TR-FRET=Time Resolved Fluorescence Energy Transfer) assay as described in the following paragraphs.
Recombinant fusion proteins of GST and human CDK2 and of GST and human CycE, expressed in insect cells (Sf9) and purified by Glutathion-Sepharose affinity chromatography, were purchase from ProQinase GmbH (Freiburg, Germany). As substrate for the kinase reaction biotinylated peptide biotin-Ttds-YISPLKSPYKISEG (C-terminus in amid form) was used which can be purchased e.g. form the company JERINI peptide technologies (Berlin, Germany).
as §1, with “CDK2/CycE” for “CDK9/CycT1”, “about 10 ng/ml.” for “in the range of 0.5 μg/ml.”, “(0.333” for “(0.33”, “AD0077, as an alternative a Terbium-cryptate-labeled anti-mouse IgG antibody from Cisbio Bioassays can be used])” for “AD0077])”
as §2

[3] = system: A2780 cells; assay: Proliferation assay, A2780; format: cell-based, human; settings: 72-hour exposure, Cell Titre-Glo, read-out: Inhibition of A2780 cell proliferation IC50
Protocol: Cultivated tumour cells (HeLa, human cervical tumour cells, ATCC CCL-2; NCI-H460, human non-small cell lung carcinoma cells, ATCC HTB-177; DU 145, hormone-independent human prostate carcinoma cells, ATCC HTB-81; HeLa-MaTu-ADR, multidrug-resistant human cervical carcinoma cells, EPO-GmbH Berlin; Caco-2, human colorectal carcinoma cells, ATCC HTB-37; B16F10, mouse melanoma cells, ATCC CRL-6475) were plated at a density of 5,000 cells/well (DU145, HeLa-MaTu-ADR), 3,000 cells/well (NCI-H460, HeLa), 1,500 cells/well (Caco-2), or 1,000 cells/well (B16F10) in a 96-well multititer plate in 200 μL of their respective growth medium supplemented 10% fetal calf serum. After 24 hours, the cells of one plate (zero-point plate) were stained with crystal violet (see below), while the medium of the other plates was supplemented with the test substances in various concentrations (0 μM, as well as in the range of 0.0001-10 μM; the final concentration of the solvent dimethyl sulfoxide was adjusted to 0.1%) using a Hewlett-Packard HP D300 Digital Dispenser. The cells were incubated for 4 days in the presence of test substances. Cell proliferation was determined by staining the cells with crystal violet: the cells were fixed by adding 20 μl/measuring point of an 11% glutaric aldehyde solution for 15 minutes at room temperature. After three washing cycles of the fixed cells with water, the plates were dried at room temperature. The cells were stained by adding 100 μl/measuring point of a 0.1% crystal violet solution (pH 3.0). After three washing cycles of the stained cells with water, the plates were dried at room temperature. The dye was dissolved by adding 100 μl/measuring point of a 10% acetic acid solution. The extinction was determined by photometry at a wavelength of 595 nm. The change of cell number, in percent, was calculated by normalization of the measured values to the extinction values of the zero-point plate (=0%) and the extinction of the untreated ([…]) cells (=100%). The IC50 values (inhibitory concentration at 50% of maximal effect) were determined by means of a 4 parameter fit. A2780 human ovarian carcinoma cells (ECACC #93112519) and non-adherent MOLM-13 human acute myeloid leukemia cells (DSMZ ACC 554) were seeded at a density of 3,000 cell/well (A2780) or 5,000 cells/well (MOLM-13) in a 96-well multititer plate in 150 μL of growth medium supplemented 10% fetal calf serum. After 24 hours, cell viability of one plate (zero-point plate) was determined with the Cell Titre-Glo Luminescent Cell Viability Assay (Promega), while the medium of the other plates was supplemented with the test substances in various concentrations (0 μM, as well as in the range of 0.0001-10 μM; the final concentration of the solvent dimethyl sulfoxide was adjusted to 0.1%) using a Hewlett-Packard HP D300 Digital Dispenser. Cell viability was assessed after 72-hour exposure with the Cell Titre-Glo Luminescent Cell Viability Assay (Promega). IC50 values (inhibitory concentration at 50% of maximal effect) were determined by means of a 4 parameter fit on measurement data which were normalized to vehicle (DMSO) treated cells (=100%) and measurement readings taken immediately before compound exposure (=0%).

T1 sequence (P50750 whole entry): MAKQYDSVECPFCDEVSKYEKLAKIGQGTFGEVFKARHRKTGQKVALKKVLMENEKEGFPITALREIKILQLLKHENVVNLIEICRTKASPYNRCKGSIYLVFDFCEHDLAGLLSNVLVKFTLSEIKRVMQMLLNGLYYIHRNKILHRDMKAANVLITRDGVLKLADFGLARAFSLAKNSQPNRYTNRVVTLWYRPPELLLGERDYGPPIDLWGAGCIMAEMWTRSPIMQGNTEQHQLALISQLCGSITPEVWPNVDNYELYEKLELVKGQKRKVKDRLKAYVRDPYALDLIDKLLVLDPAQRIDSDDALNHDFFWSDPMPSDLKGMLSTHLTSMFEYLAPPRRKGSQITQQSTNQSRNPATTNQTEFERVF
T1 sequence (O60563 whole entry partner): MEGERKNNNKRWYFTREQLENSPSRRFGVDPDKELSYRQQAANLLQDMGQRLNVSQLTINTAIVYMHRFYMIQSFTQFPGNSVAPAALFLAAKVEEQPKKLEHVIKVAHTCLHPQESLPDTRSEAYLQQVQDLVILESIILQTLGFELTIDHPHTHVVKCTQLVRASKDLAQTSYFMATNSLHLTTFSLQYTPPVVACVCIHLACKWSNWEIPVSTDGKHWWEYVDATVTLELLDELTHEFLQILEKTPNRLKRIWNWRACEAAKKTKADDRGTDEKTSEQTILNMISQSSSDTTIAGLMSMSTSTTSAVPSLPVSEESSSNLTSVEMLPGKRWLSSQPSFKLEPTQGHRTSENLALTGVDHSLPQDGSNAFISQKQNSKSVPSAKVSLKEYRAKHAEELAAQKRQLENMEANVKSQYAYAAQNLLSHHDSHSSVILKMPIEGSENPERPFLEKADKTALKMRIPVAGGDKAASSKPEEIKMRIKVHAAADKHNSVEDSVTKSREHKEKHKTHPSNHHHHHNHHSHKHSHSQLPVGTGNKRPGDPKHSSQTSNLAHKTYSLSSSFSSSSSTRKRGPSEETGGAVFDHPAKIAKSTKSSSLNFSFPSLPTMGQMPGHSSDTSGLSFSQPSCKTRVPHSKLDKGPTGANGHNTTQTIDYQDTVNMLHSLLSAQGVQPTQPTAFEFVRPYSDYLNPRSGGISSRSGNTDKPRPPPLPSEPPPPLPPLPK

Row | IC50 [1] [nM] | Selectivity high ATP CDK9 over high ATP CDK2: IC50 (high ATP CDK2)/IC50 (high ATP CDK9) [1] | IC50 [2] [nM] | IC50 [3] [nM] | IC50 ([3]; Homo sapiens, A2780, 72 h) [nM] | Structure (SMILES)
1 | 3 | 540 | 1620 | 16 | – | CC1CCCOc2cc(ccc2F)-c2cc(ncc2F)Nc2cc(CS(C)(=N)=O)cc(n2)O1 (single isomer, unassigned) [Example 15, 3,20-difluoro-14-methyl-10-[(S-methylsulfonimidoyl)methyl]-13,18-dioxa-5,7,24-triazatetracyclo[17.3.1.1^2,6.1^8,12]pentacosa-1(23),2(25),3,5,8(24),9,11,19,21-nonaene]
2 | 3 | 1196 | 3590 | 55 | – | CC1CCCCOc2cc(ccc2F)-c2cc(ncc2F)Nc2cc(CS(C)(=O)=O)cc(n2)O1 (single isomer, unassigned) [Example 30, 3,21-difluoro-14-methyl-10-[(methylsulfonyl)methyl]-13,19-dioxa-5,7,25-triazatetracyclo[18.3.1.1^2,6.1^8,12]hexacosa-1(24),2(26),3,5,8(25),9,11,20,22-nonaene]
3 | 7 | 667 | 4670 | – | 346 | CSCc1cc2nc(c1)OC(C)CCCOc1cc(ccc1F)-c1cc(ncc1F)N2 (racemic) [Example 11, (rac)-3,20-difluoro-14-methyl-10-[(methylsulfanyl)methyl]-13,18-dioxa-5,7,24-triazatetracyclo[17.3.1.1^2,6.1^8,12]pentacosa-1(23),2(25),3,5,8(24),9,11,19,21-nonaene]
4 | 3 | 503 | 1510 | 23 | – | CC1CCCOc2cc(ccc2F)-c2cc(ncc2F)Nc2cc(CS(C)(=N)=O)cc(n2)O1 (single isomer, unassigned) [Example 14, 3,20-difluoro-14-methyl-10-[(S-methylsulfonimidoyl)methyl]-13,18-dioxa-5,7,24-triazatetracyclo[17.3.1.1^2,6.1^8,12]pentacosa-1(23),2(25),3,5,8(24),9,11,19,21-nonaene]
5 | 4 | 3250 | 13000 | – | 53 | CC1CCCCCOc2cc(ccc2F)-c2cc(ncc2F)Nc2cc(CS(C)(=N)=O)cc(n2)O1 (single isomer, unassigned) [Example 26, 3,22-difluoro-14-methyl-10-[(S-methylsulfonimidoyl)methyl]-13,20-dioxa-5,7,26-triazatetracyclo[19.3.1.1^2,6.1^8,12]heptacosa-1(25),2(27),3,5,8(26),9,11,21,23-nonaene]
6 | 18 | 277 | 4980 | 146 | – | CC1CCCCCOc2cc(ccc2F)-c2cc(ncc2F)Nc2cc(CS(C)(=O)=O)cc(n2)O1 (single isomer, unassigned) [Example 32, 3,22-difluoro-14-methyl-10-[(methylsulfonyl)methyl]-13,20-dioxa-5,7,26-triazatetracyclo[19.3.1.1^2,6.1^8,12]hexacosa-1 (25),2(27),3,5,8(26),9,11,21,23-nonaene]
7 | 4 | 173 | 691 | 25 | – | CC1CCCCOc2cc(ccc2F)-c2cc(ncc2F)Nc2cc(CS(C)(=O)=O)cc(n2)O1 (single isomer, unassigned) [Example 29, 3,21-difluoro-14-methyl-10-[(methylsulfonyl)methyl]-13,19-dioxa-5,7,25-triazatetracyclo[18.3.1.1^2,6.1^8,12]hexacosa-1(24),2(26),3,5,8(25),9,11,20,22-nonaene]
